Values of other authors in patent US5910307A, “Process of extracting and purifying biologically effective ingredients from combined medicinal plants and their extract composition” (priority 1996, dated 1999).

Key:
[1] = system: chronic rheumatoid arthritis induced by Mycobacterium butyricum; conditions: literature
[2] = system: biosynthesis of prostacyclin; conditions: literature

Question: Which “anti-inflammatory and analgesic effects” value [1] does the source give for CC1(C)CC[C@]2(C(=O)O)CC[C@]3(C)C(=CC[C@@H]4[C@@]5(C)CC[C@H](O)C(C)(C)[C@@H]5CC[C@]43C)[C@@H]2C1 [oleanolic acid] here?
Answer: Its value is “remarkable anti-inflammatory and analgesic effects”.

Question: And the “effect on chronic rheumatoid arthritis induced by Mycobacterium butyricum” value [1]?
Answer: The value was “effective”.

Question: Which “biosynthesis of prostacyclin generated in the metabolism of arachidonic acid” value [2] does the source give for O=C(/C=C/c1ccc(O)c(O)c1)O[C@H](Cc1ccc(O)c(O)c1)C(=O)O [rosmarinic acid] here?
Answer: Its value is “inhibit”.
